# Data from US8148516B2, “Flowcell systems for single molecule detection” (Pacific Biosciences of California, Inc., priority 2000, dated 2012).
# Test: Capillary electrophoresis of dTTP and dTDP: effect of Mg++ on electrophoretic mobility
# Assay type: physicochemical
# Details: 50 mM Tris-acetate pH 8.0, 60 mM KCl; for effect of Mg++ on electrophoretic mobility: MgCl2 3-40 mM
# Procedure: The effect of Mg^++ on the electrophoretic mobility of dTTP and dTDP was determined by capillary electrophoresis. Electrophoresis buffer contained 50 mM Tris-acetate pH 8.0, 60 mM KCl, and various concentrations of MgCl2 (3, 4, 6, 10, 15, 25 and 40 mM). The sample contained 0.5 mM nucleotide (dTTP or dTDP; Sigma) and 0.8 mM mesityl oxide (electroneutral marker; Sigma). The samples were analyzed by capillary electrophoresis (Hewlett Packard) using an uncoated fused silica capillary (40 cm from injection end to detection zone). Voltage was 8.5 kV and peaks were monitored by optical absorbance at 260 nm. Electrokinetic velocity of each sample peak was calculated by dividing distance (40 cm) by elution time. Electroosmotic flow (EOF) of the bulk buffer is taken as the velocity of the mesityl oxide marker. Nucleotide electrophoretic velocity is the nucleotide electrokinetic velocity minus EOF. Nucleotide electrophoretic velocities are plotted as a function of Mg^++ concentration (FIG. 11A).
SMILES,effect of Mg++ on electrophoretic mobility,"electrophoretic mobility compared with dTDP (3-40 mM MgCl2, 8.5 kV)"
Cc1cn([C@H]2C[C@H](O)[C@@H](COP(=O)(O)OP(=O)(O)O)O2)c(=O)[nH]c1=O [dTDP],from more negative to less negative,
Cc1cn([C@H]2C[C@H](O)[C@@H](COP(=O)(O)OP(=O)(O)OP(=O)(O)O)O2)c(=O)[nH]c1=O [dTTP],from more negative to less negative,more negative electrophoretic mobility than the dTDP
